# How the values were obtained:
# [1] = test system: textured facial skin (upper cheek area); assay: In vivo facial texture test (Texture Area Fraction, split face, vehicle controlled); set-up: species or system human; details: vehicle+5% Hexyldecanol, 0.5 g per side of face twice daily, topical, 8 weeks, 330 subjects
# Description: A 9 week in vivo study was conducted using a round robin, vehicle controlled, split face design including a 1 week normalization period with 330 subjects.
# Treatment Regimen—The regimen begins with a one week washout period. […]
# Images of the facial treatment sites are captured at baseline (week 0), and after 4 and 8 weeks of treatment and analyzed for changes to facial texture. […]
# The region of interest (ROI), in this case the upper cheek area, was marked manually based on 12 predefined facial landmarks around the cheek—for example, corners of the eye, bridge of the nose, corners of the mouth. The degree of textured skin in the ROI were quantified objectively using image analysis algorithms based on an Optimus software platform, which automatically locates each surface feature and quantifies the total number, length and area of facial features shorter than 5 mm and less than 0.16 mm wide, known magnification used to convert pixel data to actual length and area data. […]
# [2] = test system: HAS-2 gene (Hyaluronic Acid Synthase-2 gene); assay: Hyaluronic Acid (HA) Synthase expression, GeneChip microarray in keratinocyte culture; format: cell-based; details: human telomerized keratinocytes, 10 micro molar, 6 hours exposure, six Affymetrix GeneChips, p-value=0.0366
# Description: Individual experiments (referred to as batches) are generally comprised of 60 Affymetrix GeneChips® (referred to as “instances”) containing 6 vehicle control samples, 2 positive control samples and 52 individual test material samples. Duplication of test materials is performed across batches. In vitro testing is performed in 6-well plates to provide sufficient RNA for GeneChip® analysis (2-4 ug total RNA yield/well). Human telomerized keratinocytes are grown in EpiLife® media with 1× Human Keratinocyte Growth Supplement (Invitrogen) on collagen I coated cell culture flasks and plates (Becton Dickinson). Cells are seeded into 6-well plates at 20,000 cells/cm2 24 hours before chemical exposure. At t=−24 hours cells are trypsinized from T-75 flasks and plated into 6-well plates in basal growth medium. At t=0 media is removed and replaced with the appropriate dosing solution as per the experimental design. Dosing solutions are prepared the previous day in sterile 4 ml Falcon snap cap tubes. After 6 hours of chemical exposure cells are viewed and imaged. Cells are then lysed with 350 ul/well of RLT buffer containing β-mercaptoethanol (Qiagen), transferred to a 96-well plate, and stored at −20° C. […]
# Data quality was determined using a variety of statistical measures, including t-tests, scatter biplots, and principal components analysis, depending upon the source and character of the data. […]
smiles,measurement,setting,value
"CCCCCCCCC(CO)CCCCCC (centres unmarked) [Hexyldecanol, 2-hexyldecan-1-ol]",Texture Area Fraction reduction versus vehicle control,[1],significantly (p<=0.10) reducing Texture Area Fraction better than the control
same,average fold change of transcriptional expression level of HAS-2 probe set IDs,[2],1.336 fold change

# Source: patent US20120156146A1, “Compositions and Methods for Improving the Appearance of Facial Texture” (priority 2010, published 2012)
